Test results as given in paper PMC5218480 (PLoS ONE, 2017).

Test system: MV-4-11 cells
Assay: Gene expression microarray analysis (Affymetrix PrimeView) and GSEA
Type: cell-based, human
Set-up: RFU PODN (11730768_x_at) / Fold change /veh PODN (11730768_x_at) / RFU LINC00158 (11744669_a_at) / Fold change /veh LINC00158 (11744669_a_at) / RFU DUSP10 (11751237_a_at) / Fold change /veh DUSP10 (11751237_a_at) / RFU ID3 (11757404_x_at) / Fold change /veh ID3 (11757404_x_at) / RFU PLEKHG5 (11737974_s_at) / Fold change /veh PLEKHG5 (11737974_s_at) / RFU LRRC4B (11730491_at) / Fold change /veh LRRC4B (11730491_at) / RFU GIMAP4 (11747438_a_at) / Fold change /veh GIMAP4 (11747438_a_at) / RFU KRT8 (11758183_x_at) / Fold change /veh KRT8 (11758183_x_at) / RFU CNN1 (11734310_a_at) / Fold change /veh CNN1 (11734310_a_at) / RFU VPS37D (11726825_at) / Fold change /veh VPS37D (11726825_at) / RFU C10orf10 (11716522_x_at) / Fold change /veh C10orf10 (11716522_x_at) / RFU KIR2DL2 /// KIR2DL4 /// KIR2DL5A /// KIR2DL5B /// KIR2DS1 /// KIR2DS2 /// KIR2DS3 /// KIR2DS4 /// KIR3DL3 /// KIR3DL3 /// KIR3DS1 (11738374_at) / Fold change /veh KIR2DL2 /// KIR2DL4 /// KIR2DL5A /// KIR2DL5B /// KIR2DS1 /// KIR2DS2 /// KIR2DS3 /// KIR2DS4 /// KIR3DL3 /// KIR3DL3 /// KIR3DS1 (11738374_at) / RFU C1QL1 (11718748_at) / Fold change /veh C1QL1 (11718748_at) / RFU TMPRSS4 (11747572_a_at) / Fold change /veh TMPRSS4 (11747572_a_at) / RFU HAMP (11756126_x_at) / Fold change /veh HAMP (11756126_x_at) / RFU RNFT2 (11725882_a_at) / Fold change /veh RNFT2 (11725882_a_at) / RFU NR4A2 (11747474_a_at) / Fold change /veh NR4A2 (11747474_a_at) / RFU ABCC12 (11746883_a_at) / Fold change /veh ABCC12 (11746883_a_at) / RFU TMEM136 (11760407_x_at) / Fold change /veh TMEM136 (11760407_x_at) / RFU CLDN22 /// WWC2 (11732394_at) / Fold change /veh CLDN22 /// WWC2 (11732394_at) / RFU HLA-DPB1 (11760878_x_at) / Fold change /veh HLA-DPB1 (11760878_x_at) / RFU SPINT1 (11716480_a_at) / Fold change /veh SPINT1 (11716480_a_at) / RFU GAP43 (11754022_s_at) / Fold change /veh GAP43 (11754022_s_at) / RFU A4GNT (11735810_at) / Fold change /veh A4GNT (11735810_at) / RFU PRB3 (11715151_x_at) / Fold change /veh PRB3 (11715151_x_at) / RFU TUBB4B (11761932_at) / Fold change /veh TUBB4B (11761932_at) / RFU CAPN14 (11732068_a_at) / Fold change /veh CAPN14 (11732068_a_at) / RFU TMCC2 (11721928_a_at) / Fold change /veh TMCC2 (11721928_a_at) / RFU IRGQ (11745062_a_at) / Fold change /veh IRGQ (11745062_a_at) / RFU FAM174B (11720279_a_at) / Fold change /veh FAM174B (11720279_a_at) / RFU TMPRSS4 (11748680_a_at) / Fold change /veh TMPRSS4 (11748680_a_at) / RFU FAM212B (11763350_a_at) / Fold change /veh FAM212B (11763350_a_at) / RFU PLEKHG5 (11743358_a_at) / Fold change /veh PLEKHG5 (11743358_a_at) / RFU ZSCAN30 (11745921_a_at) / Fold change /veh ZSCAN30 (11745921_a_at) / RFU CMKLR1 (11741424_a_at) / Fold change /veh CMKLR1 (11741424_a_at) / RFU LOC101060620 /// MAPK8IP1 (11723275_at) / Fold change /veh LOC101060620 /// MAPK8IP1 (11723275_at) / RFU SPTSSB (11747773_x_at) / Fold change /veh SPTSSB (11747773_x_at) / RFU PRSS12 (11739890_at) / Fold change /veh PRSS12 (11739890_at) / RFU BIN1 (11741810_x_at) / Fold change /veh BIN1 (11741810_x_at) / RFU WNT11 (11732464_a_at) / Fold change /veh WNT11 (11732464_a_at) / RFU C10orf10 (11716521_a_at) / Fold change /veh C10orf10 (11716521_a_at) / RFU C5orf56 (11738089_at) / Fold change /veh C5orf56 (11738089_at) / RFU CYB561 (11721691_x_at) / Fold change /veh CYB561 (11721691_x_at) / RFU ANKRD19P (11752326_a_at) / Fold change /veh ANKRD19P (11752326_a_at) / RFU OR2T12 /// OR2T33 /// OR2T8 (11738714_s_at) / Fold change /veh OR2T12 /// OR2T33 /// OR2T8 (11738714_s_at) / RFU VCAN (11748164_a_at) / Fold change /veh VCAN (11748164_a_at) / RFU JSRP1 (11732532_at) / Fold change /veh JSRP1 (11732532_at) / RFU KRTAP10-11 (11738290_x_at) / Fold change /veh KRTAP10-11 (11738290_x_at) / RFU MYO3A (11730013_a_at) / Fold change /veh MYO3A (11730013_a_at) / RFU EBF3 (11725865_a_at) / Fold change /veh EBF3 (11725865_a_at) / RFU CAMK2N1 (11719241_x_at) / Fold change /veh CAMK2N1 (11719241_x_at) / RFU C5orf56 (11738088_a_at) / Fold change /veh C5orf56 (11738088_a_at) / RFU OLFML3 (11715873_a_at) / Fold change /veh OLFML3 (11715873_a_at) / RFU LOC100653217 /// NTM (11731650_a_at) / Fold change /veh LOC100653217 /// NTM (11731650_a_at) / RFU MAPK11 (11762145_a_at) / Fold change /veh MAPK11 (11762145_a_at) / RFU FIZ1 (11724087_x_at) / Fold change /veh FIZ1 (11724087_x_at) / RFU OASL (11726364_x_at) / Fold change /veh OASL (11726364_x_at) / RFU SOX15 (11748057_x_at) / Fold change /veh SOX15 (11748057_x_at) / RFU CD79A (11719716_a_at) / Fold change /veh CD79A (11719716_a_at) / RFU HIST1H1D (11736915_at) / Fold change /veh HIST1H1D (11736915_at) / RFU CASKIN2 (11723855_a_at) / Fold change /veh CASKIN2 (11723855_a_at) / RFU LOC730098 (11760151_x_at) / Fold change /veh LOC730098 (11760151_x_at) / RFU OR4N2 (11742367_at) / Fold change /veh OR4N2 (11742367_at) / RFU PRRT2 (11749266_a_at) / Fold change /veh PRRT2 (11749266_a_at) / RFU SNX32 (11753110_a_at) / Fold change /veh SNX32 (11753110_a_at) / RFU CDHR5 (11726645_a_at) / Fold change /veh CDHR5 (11726645_a_at) / RFU RCAN1 (11760418_a_at) / Fold change /veh RCAN1 (11760418_a_at) / RFU FAM167A (11723789_a_at) / Fold change /veh FAM167A (11723789_a_at) / RFU FAM26E (11764081_at) / Fold change /veh FAM26E (11764081_at) / RFU ISYNA1 (11749810_s_at) / Fold change /veh ISYNA1 (11749810_s_at) / RFU ACY1 (11761880_at) / Fold change /veh ACY1 (11761880_at) / RFU 11764098_at / Fold change /veh 11764098_at / RFU SAMD14 (11745864_x_at) / Fold change /veh SAMD14 (11745864_x_at) / RFU NPB (11741838_a_at) / Fold change /veh NPB (11741838_a_at) / RFU TMPRSS6 (11731388_a_at) / Fold change /veh TMPRSS6 (11731388_a_at) / RFU KRTAP10-2 (11738614_at) / Fold change /veh KRTAP10-2 (11738614_at) / RFU ARHGAP8 /// PRR5-ARHGAP8 (11727945_x_at) / Fold change /veh ARHGAP8 /// PRR5-ARHGAP8 (11727945_x_at) / RFU KRTAP5-7 /// NADSYN1 (11734609_at) / Fold change /veh KRTAP5-7 /// NADSYN1 (11734609_at) / RFU RASL12 (11751679_a_at) / Fold change /veh RASL12 (11751679_a_at) / RFU CDKN2B (11736163_a_at) / Fold change /veh CDKN2B (11736163_a_at) / RFU PRF1 (11729649_at) / Fold change /veh PRF1 (11729649_at) / RFU, ZNF638 /// ZNF638-IT1 / Fold change vs veh, ZNF638 /// ZNF638-IT1 / RFU, PANK3 / Fold change vs veh, PANK3 / RFU, SH3YL1 / Fold change vs veh, SH3YL1 / RFU, ZEB2 / Fold change vs veh, ZEB2 / RFU, NRIP1 / Fold change vs veh, NRIP1 / RFU, PTTG1IP / Fold change vs veh, PTTG1IP / RFU, CAPN2 / Fold change vs veh, CAPN2 / RFU, MED14 / Fold change vs veh, MED14 / RFU, SNORA58 / Fold change vs veh, SNORA58 / RFU, C1orf63 / Fold change vs veh, C1orf63 / RFU, LRRFIP1 / Fold change vs veh, LRRFIP1 / RFU, NDUFAF7 / Fold change vs veh, NDUFAF7 / RFU, SLC12A2 / Fold change vs veh, SLC12A2 / RFU, IBTK / Fold change vs veh, IBTK / RFU, ESF1 / Fold change vs veh, ESF1 / Fold change vs veh, TMEM50B / RFU, TAOK1 / Fold change vs veh, TAOK1 / RFU, ACBD3 / Fold change vs veh, ACBD3 / RFU, TMA16 / Fold change vs veh, TMA16 / RFU, RWDD3 / Fold change vs veh, RWDD3 / RFU, BCAT1 / Fold change vs veh, BCAT1 / RFU, EDEM3 / Fold change vs veh, EDEM3 / RFU, TMEM33 / Fold change vs veh, TMEM33 / RFU, WDR75 / Fold change vs veh, WDR75 / RFU, AHCTF1 / Fold change vs veh, AHCTF1 / RFU, TFRC / Fold change vs veh, TFRC / RFU, ZDHHC17 / Fold change vs veh, ZDHHC17 / RFU, NOM1 / Fold change vs veh, NOM1 / RFU, ARL8B / Fold change vs veh, ARL8B / RFU, ZBTB11 / Fold change vs veh, ZBTB11 / RFU, TAMM41 / Fold change vs veh, TAMM41 / RFU, KIAA1704 /// LOC100996395 / Fold change vs veh, KIAA1704 /// LOC100996395 / RFU, ING1 / Fold change vs veh, ING1 / RFU, TRMT61B / Fold change vs veh, TRMT61B / RFU, FUBP3 / Fold change vs veh, FUBP3 / RFU, TP53 / Fold change vs veh, TP53 / RFU, TNKS2 / Fold change vs veh, TNKS2 / RFU, ZFP14 / Fold change vs veh, ZFP14 / RFU, ACTR2 / Fold change vs veh, ACTR2 / RFU, PPP3R1 / Fold change vs veh, PPP3R1 / RFU, PIK3R1 / Fold change vs veh, PIK3R1 / RFU, HNRNPA1 / Fold change vs veh, HNRNPA1 / RFU, RNF170 / Fold change vs veh, RNF170 / RFU, ZNF28 / Fold change vs veh, ZNF28 / RFU, RNGTT / Fold change vs veh, RNGTT / RFU, OGT / Fold change vs veh, OGT / RFU, BRD1 / Fold change vs veh, BRD1 / RFU, MARS / Fold change vs veh, MARS / RFU, ZNF655 / Fold change vs veh, ZNF655 / RFU, FAHD1 / Fold change vs veh, FAHD1 / RFU, BDP1 / Fold change vs veh, BDP1 / RFU, LRRCC1 / Fold change vs veh, LRRCC1 / RFU, ARID1A / Fold change vs veh, ARID1A / RFU, ZNF146 / Fold change vs veh, ZNF146 / RFU, ZNF330 / Fold change vs veh, ZNF330 / RFU, GPN3 / Fold change vs veh, GPN3 / RFU, C9orf123 / Fold change vs veh, C9orf123 / RFU, N4BP2L2 / Fold change vs veh, N4BP2L2 / RFU, ARFIP1 / Fold change vs veh, ARFIP1 / RFU, FAM179B / Fold change vs veh, FAM179B / RFU, BCL10 / Fold change vs veh, BCL10 / RFU, UHRF1BP1L / Fold change vs veh, UHRF1BP1L / RFU, BET1 / Fold change vs veh, BET1 / RFU, CNOT2 / Fold change vs veh, CNOT2 / RFU, ZNF268 / Fold change vs veh, ZNF268 / Fold change vs veh, ZNF507 / RFU, DGCR2 / Fold change vs veh, DGCR2 / RFU, WDSUB1 / Fold change vs veh, WDSUB1 / Fold change vs veh, HSP90B1 /// MIR3652 / RFU, ADSS / Fold change vs veh, ADSS / RFU, GK / Fold change vs veh, GK / RFU, ZNF148 / Fold change vs veh, ZNF148 / RFU, TAF9 / Fold change vs veh, TAF9 / RFU, SLC1A5 / Fold change vs veh, SLC1A5 / RFU, SLMO2 / Fold change vs veh, SLMO2 / RFU, ABCC4 / Fold change vs veh, ABCC4 / RFU, LOC101060439 /// RAP1B / Fold change vs veh, LOC101060439 /// RAP1B / RFU, RFX7 / Fold change vs veh, RFX7 / RFU, GTPBP10 / Fold change vs veh, GTPBP10 / RFU, CNEP1R1 / Fold change vs veh, CNEP1R1 / RFU, BIVM-ERCC5 /// ERCC5 / Fold change vs veh, BIVM-ERCC5 /// ERCC5 / RFU, ILF3 / Fold change vs veh, ILF3 / RFU 11762660_at / Fold change /veh 11762660_at / RFU VCAN (11757783_s_at) / Fold change /veh VCAN (11757783_s_at) / RFU DDX43 (11728927_at) / Fold change /veh DDX43 (11728927_at) / RFU KRT8 (11758188_x_at) / Fold change /veh KRT8 (11758188_x_at) / RFU NKD1 (11759106_at) / Fold change /veh NKD1 (11759106_at) / RFU SRD5A1 (11742802_a_at) / Fold change /veh SRD5A1 (11742802_a_at) / RFU TPSAB1 /// TPSB2 (11721975_s_at) / Fold change /veh TPSAB1 /// TPSB2 (11721975_s_at) / RFU GSTM3 (11746129_a_at) / Fold change /veh GSTM3 (11746129_a_at) / RFU IL23R (11737362_x_at) / Fold change /veh IL23R (11737362_x_at) / RFU TMEM51 (11727254_a_at) / Fold change /veh TMEM51 (11727254_a_at) / RFU PIWIL2 (11732686_x_at) / Fold change /veh PIWIL2 (11732686_x_at) / RFU ORM1 (11744905_x_at) / Fold change /veh ORM1 (11744905_x_at) / RFU CCDC152 (11743942_at) / Fold change /veh CCDC152 (11743942_at) / RFU ECM1 (11717891_a_at) / Fold change /veh ECM1 (11717891_a_at) / RFU IL23R (11748794_a_at) / Fold change /veh IL23R (11748794_a_at) / RFU TNFAIP8L3 (11732012_x_at) / Fold change /veh TNFAIP8L3 (11732012_x_at) / RFU MBOAT4 (11741988_at) / Fold change /veh MBOAT4 (11741988_at) / RFU 11764193_at / Fold change /veh 11764193_at / RFU TMEM53 (11763286_at) / Fold change /veh TMEM53 (11763286_at) / RFU MAGEB2 (11727129_at) / Fold change /veh MAGEB2 (11727129_at) / RFU TMEM200A (11744735_a_at) / Fold change /veh TMEM200A (11744735_a_at) / RFU CCDC152 (11751479_a_at) / Fold change /veh CCDC152 (11751479_a_at) / RFU FAM211A (11726209_a_at) / Fold change /veh FAM211A (11726209_a_at) / RFU RGS16 (11746705_a_at) / Fold change /veh RGS16 (11746705_a_at) / RFU VCAN (11755009_s_at) / Fold change /veh VCAN (11755009_s_at) / RFU RHOB (11743442_s_at) / Fold change /veh RHOB (11743442_s_at) / RFU RGS16 (11720943_a_at) / Fold change /veh RGS16 (11720943_a_at) / RFU RGS16 (11720944_at) / Fold change /veh RGS16 (11720944_at) / RFU, VPS4B / Fold change vs veh, VPS4B / RFU, CREB1 / Fold change vs veh, CREB1 / RFU, DNAJC13 / Fold change vs veh, DNAJC13 / RFU, GNAQ / Fold change vs veh, GNAQ / RFU, CDK5R1 / Fold change vs veh, CDK5R1 / RFU, ZRANB3 / Fold change vs veh, ZRANB3 / RFU, CUL4A / Fold change vs veh, CUL4A / RFU, CCNY / Fold change vs veh, CCNY / RFU, UFL1 / Fold change vs veh, UFL1 / RFU, COG3 / Fold change vs veh, COG3 / RFU, DIAPH2 / Fold change vs veh, DIAPH2 / RFU, SKA2 / Fold change vs veh, SKA2 / RFU, AFF3 / Fold change vs veh, AFF3 / RFU, LMF1 / Fold change vs veh, LMF1 / RFU, IPO11 / Fold change vs veh, IPO11 / RFU, DFFB / Fold change vs veh, DFFB / RFU, FOXP1 / Fold change vs veh, FOXP1 / RFU, CARD8 / Fold change vs veh, CARD8 / RFU, STRN3 / Fold change vs veh, STRN3 / RFU, ADK / Fold change vs veh, ADK / RFU, RASSF2 / Fold change vs veh, RASSF2 / RFU, WIPF1 / Fold change vs veh, WIPF1 / RFU, LARP1B / Fold change vs veh, LARP1B / RFU, RASA1 / Fold change vs veh, RASA1 / RFU, RB1 / Fold change vs veh, RB1 / RFU, PPFIA1 / Fold change vs veh, PPFIA1 / RFU, MAT2A / Fold change vs veh, MAT2A / RFU, CCT5 / Fold change vs veh, CCT5 / RFU, WDR92 / Fold change vs veh, WDR92 / RFU, CUX1 / Fold change vs veh, CUX1 / RFU, TTC7A / Fold change vs veh, TTC7A / RFU, TMEM135 / Fold change vs veh, TMEM135 / RFU, DEPTOR / Fold change vs veh, DEPTOR / RFU, CPM / Fold change vs veh, CPM / RFU, DNAJB6 / Fold change vs veh, DNAJB6 / RFU, CACNA2D3 / Fold change vs veh, CACNA2D3 / RFU, DTX4 / Fold change vs veh, DTX4 / RFU, TFCP2 / Fold change vs veh, TFCP2 / RFU, GMCL1 /// GMCL1P1 / Fold change vs veh, GMCL1 /// GMCL1P1 / RFU, AEBP2 / Fold change vs veh, AEBP2 / RFU, SNHG1 /// SNORD22 /// SNORD25 /// SNORD26 /// SNORD27 /// SNORD28 /// SNORD29 /// SNORD31 / Fold change vs veh, SNHG1 /// SNORD22 /// SNORD25 /// SNORD26 /// SNORD27 /// SNORD28 /// SNORD29 /// SNORD31 / Fold change (Aza/veh), C12orf56 (ProbeSet 11735607_a_at) / Fold change (ACY-1035/veh), C12orf56 (ProbeSet 11735607_a_at) / Fold change (Aza/veh), FGFR1OP (ProbeSet 11751329_s_at) / Fold change (ACY-1035/veh), FGFR1OP (ProbeSet 11751329_s_at) / Fold change (Aza/veh), VPS36 (ProbeSet 11739960_a_at) / Fold change (ACY-1035/veh), VPS36 (ProbeSet 11739960_a_at) / RFU SYPL1 (11715823_x_at) / Fold change /veh SYPL1 (11715823_x_at) / RFU IGFBP7 (11715501_s_at) / Fold change /veh IGFBP7 (11715501_s_at) / RFU REEP3 (11722064_at) / Fold change /veh REEP3 (11722064_at) / RFU IGLL1 (11728026_x_at) / Fold change /veh IGLL1 (11728026_x_at): dose or concentration left out as unconfirmed
Conditions: ProbeSet 11763166_a_at; LIST B

## Nc1ncn([C@@H]2O[C@H](CO)[C@@H](O)[C@H]2O)c(=O)n1 [azacitidine]
  Fold change vs veh, MARS: 0.85
